Results as given in patent publication US20260035360A1, “INHIBITORS OF MYC AND USES THEREOF” (Northwestern University, priority 2022, published 2026).

Experiments:
Type in all cases: cell-based
PC3 cells = assay: PC3 cell viability, CellTitreGlo Assay, 72 hrs; settings: Homo sapiens, PC-3
Protocol: (§1) Table 2. Biological data of selected compounds. For IC50 determination. PC3 and PC12 cells were treated with increasing concentrations of the indicated compounds for 72 hrs and cell viability assessed using CellTitreGlo Assay (Promega). For MYC and ATF4 protein level determination. PC3 cells were treated with the indicated compounds for 24 hr sand cell lysates processed for western blot with MYC and ATF4 antibodies using Actin as a control. Quantification analyses were performed by Biorad ChemiDoc Imager and Bio-Rad Image Lab software.

PC12 cells = assay: PC12 cell viability, CellTitreGlo Assay, 72 hrs; settings: Rattus norvegicus, PC-12
Protocol: as §1

MYC = target: T1, MYC (Homo sapiens, UniProt P01106); assay: MYC protein level in PC3 cells by western blot, 24 hr; settings: PC-3, 24 h, PC3, 24 h, Actin control, read-out: Relative MYC protein at 10 μM (%, PC3 24 h)
T1 construct: endogenous in cells; host or cells: PC3 cells
Protocol: as §1

ATF4 = ATF4 protein level in PC3 cells by western blot, 24 hr; settings: Homo sapiens, PC-3, PC3, 24 h, Actin control, read-out: Relative ATF4 protein at 10 μM (fold change, PC3 24 h)
Protocol: as §1

T1 sequence (P01106 whole entry): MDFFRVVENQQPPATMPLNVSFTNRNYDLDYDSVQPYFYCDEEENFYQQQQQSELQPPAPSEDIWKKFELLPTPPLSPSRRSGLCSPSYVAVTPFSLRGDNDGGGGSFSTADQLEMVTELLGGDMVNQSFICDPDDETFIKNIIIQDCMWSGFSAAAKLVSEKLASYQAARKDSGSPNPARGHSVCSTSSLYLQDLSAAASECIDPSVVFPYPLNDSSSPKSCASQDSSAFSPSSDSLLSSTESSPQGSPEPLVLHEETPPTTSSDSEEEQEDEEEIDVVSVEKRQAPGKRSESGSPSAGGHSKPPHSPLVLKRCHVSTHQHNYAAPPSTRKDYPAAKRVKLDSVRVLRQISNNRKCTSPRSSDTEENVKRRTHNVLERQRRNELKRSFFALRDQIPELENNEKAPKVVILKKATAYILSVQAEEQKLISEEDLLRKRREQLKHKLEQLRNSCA

| Compound | IC50 (PC3 cells) [µM] | IC50 (PC12 cells) [µM] | remaining activity at 10 µM (MYC) [%] | fold induction at 10 µM (ATF4) |
| --- | --- | --- | --- | --- |
| Cn1nc(C(F)(F)F)cc1-c1ccc(Oc2ccc(Cl)cc2)c(-c2ccc(Cl)c(C(F)(F)F)c2)c1O [NUCC-0227247] | 1.14 | 7.12 | 46.7 | 18.3 |
| Cc1ccc(C2(Oc3ccc(-c4cc(C(F)(F)F)nn4C)c(O)c3-c3ccc(Cl)c(C(F)(F)F)c3)CC2)cc1 [NUCC-0226495] | 3.8 | 597 | 15.6 | 11.5 |
| Cn1nc(C#N)cc1-c1cc(Cl)c(COc2ccc(Cl)cc2)c(-c2ccc(Cl)c(C(F)(F)F)c2)c1O [NUCC-0227065] | 0.74 | 3.8 | 35.4 | 13.4 |
| Cn1cncc1-c1ccc(OCc2ccc(Cl)cc2)c(-c2ccc(Cl)c(C(F)(F)F)c2)c1O [NUCC-0226660] | > 50 | 9.22 | 94.4 | 2.5 |
| Cn1nc(C#N)cc1-c1ccc(OCc2ccc(Cl)cc2)c(-c2ccc(Cl)c(C(F)(F)F)c2)c1O [NUCC-0226914] | 1.01 | 3.5 | 48.5 | 14.1 |
| Cn1nc(N)cc1-c1ccc(OCc2ccc(Cl)cc2)c(-c2ccc(Cl)c(C(F)(F)F)c2)c1O [NUCC-0226915] | 14.2 | 10.5 | 86.9 | 0.95 |
| CNc1c(Cl)cc(-c2cc(C(F)(F)F)nn2C)c(O)c1-c1ccc(Cl)c(C(F)(F)F)c1 [NUCC-0226529] | 3.1 | 19.4 | 41.3 | 2.4 |
| Cn1nc(C(F)(F)F)cc1-c1cc(Cl)c(N)c(-c2ccc(Cl)c(C(F)(F)F)c2)c1O [NUCC-0226528] | 4.5 | 30.5 | 19.8 | 2 |
| Cn1nc(C(F)(F)F)c(Cl)c1-c1cc(Cl)c(Oc2ccc(Cl)cc2)c(-c2ccc(Cl)c(C(F)(F)F)c2)c1O [NUCC-0227246] | 0.91 | 5.78 | 37.3 | 23.5 |
| Cn1nc(C(F)(F)F)cc1-c1cc(Cl)c(CNc2ccc(Cl)cc2)c(-c2ccc(Cl)c(C(F)(F)F)c2)c1O [NUCC-0227062] | 0.964 | 2.31 | 40.7 | 15 |
| COc1c(Cl)cc(-c2cc(C(F)(F)F)nn2C)c(O)c1-c1ccc(Cl)c(C(F)(F)F)c1 [NUCC-0226500] | 1.6 | 8.6 | 72.4 | 7.7 |
| Cc1ncsc1-c1ccc(CNC(=O)[C@@H]2C[C@@H](O)CN2C(=O)[C@@H](NC(=O)CCCCCCCCCCNC(=O)CCOCCCN(C(=O)c2ccc(Cl)c(C(F)(F)F)c2)c2ccc(-c3cc(C(F)(F)F)nn3C)c(O)c2)C(C)(C)C)cc1 [NUCC-0226227] | 22.3 | – | 102 | 10.2 |
| CC(C)n1nc(C(F)(F)F)cc1-c1ccc(OCc2ccc(Cl)cc2)c(-c2ccc(Cl)c(C(F)(F)F)c2)c1O [NUCC-0226657] | 7.51 | – | 56.6 | 7.7 |
| Cn1nc(C(N)=O)cc1-c1cc(Cl)c(COc2ccc(Cl)cc2)c(-c2ccc(Cl)c(C(F)(F)F)c2)c1O [NUCC-0227066] | 8.53 | – | 84.2 | 3.9 |
| Cn1nc(C(F)(F)F)c(Cl)c1-c1ccc(COc2ccc(Cl)cc2Cl)c(-c2ccc(Cl)c(C(F)(F)F)c2)c1O [NUCC-0227064] | 0.399 | 8.27 | 42 | 12.7 |
| Cn1nc(C(F)(F)F)cc1-c1ccc(OCc2ccc(Cl)cc2)c(-c2ccc(Cl)cc2F)c1O [NUCC-0226497] | 24.8 | – | 93 | 5.9 |
| Cn1nc(C(F)(F)F)cc1-c1cc2c(c(-c3ccc(Cl)c(C(F)(F)F)c3)c1O)CN(Cc1ccc(Cl)cc1)CC2 [NUCC-0227169] | 3.28 | 8.01 | 41.8 | 14.6 |
| Cn1nc(C(F)(F)F)cc1-c1ccc(OCc2ccc(Cl)cc2)c(-c2cccc(F)c2)c1O [NUCC-0226498] | 40.9 | – | 67.8 | 4.8 |
| Cn1nc(C(F)(F)F)cc1-c1ccc(OCc2ccc(Cl)cc2)c(-c2ccc(Cl)c(C#N)c2)c1O [NUCC-0226499] | 2.4 | 13.5 | 37.3 | 17.1 |

| Compound | IC50 (PC3 cells) [µM] | IC50 (PC12 cells) [µM] | remaining activity at 10 µM (MYC) [%] | fold induction at 10 µM (ATF4) |
| --- | --- | --- | --- | --- |
| Cn1nc(C(F)(F)F)cc1-c1cc2c(c(-c3ccc(Cl)c(C(F)(F)F)c3)c1O)OC(c1ccc(Cl)cc1)CC2 (centres unmarked) [NUCC-0227173] | 4.74 | 14.1 | 62.9 | 9 |
| CN1C(=O)CCC(N2C(=O)c3cccc(NCCOCCOCCNC(=O)CCOCCCN(C(=O)c4ccc(Cl)c(C(F)(F)F)c4)c4ccc(-c5cc(C(F)(F)F)nn5C)c(O)c4)c3C2=O)C1=O (centres unmarked) [NUCC-0226292] | 10.1 | – | 65.1 | 1.1 |
| Cc1ncsc1-c1ccc(CNC(=O)[C@@H]2C[C@H](O)CN2C(=O)[C@H](NC(=O)COCCNC(=O)CCOCCCN(C(=O)c2ccc(Cl)c(C(F)(F)F)c2)c2ccc(-c3cc(C(F)(F)F)nn3C)c(O)c2)C(C)(C)C)cc1 [NUCC-0226291] | 4 | 14.6 | 54.6 | 1.8 |
| Cc1ccc([C@H](C)Oc2ccc(-c3cc(C(F)(F)F)nn3C)c(O)c2-c2ccc(Cl)c(C(F)(F)F)c2)cc1 [NUCC-0226435] | 5.4 | – | 47.4 | 4.7 |
| Cn1nc(C(F)(F)F)c(Cl)c1-c1cc(F)c(COc2ccc(Cl)cc2)c(-c2ccc(Cl)c(C(F)(F)F)c2)c1O [NUCC-0227063] | 0.985 | 5.02 | 37.2 | 12.4 |
| Cn1nc(C(F)(F)F)cc1-c1ccc(OCCCCCOCCOCCOc2cccc3c2C(=O)N(C2CCC(=O)NC2=O)C3=O)c(-c2ccc(Cl)c(C(F)(F)F)c2)c1O (centres unmarked) [NUCC-0226224] | 10.1 | – | 84.2 | 8.1 |
| Cn1nc(C(F)(F)F)c(Cl)c1-c1cc(Cl)c(COc2ccc(Cl)cc2Cl)c(-c2ccc(Cl)c(C(F)(F)F)c2)c1O [NUCC-0227038] | 1.61 | 15.3 | 34.5 | 15.1 |
| Cc1ncsc1-c1ccc(CNC(=O)[C@@H]2C[C@@H](O)CC2C(=O)[C@@H](NC(=O)COCCNC(=O)CCOCCCN(C(=O)c2ccc(Cl)c(C(F)(F)F)c2)c2ccc(-c3cc(C(F)(F)F)nn3C)c(O)c2)C(C)(C)C)cc1 (some centres unmarked) [NUCC-0226228] | 6 | – | 38.1 | 23.1 |
| Cn1nc(C(F)(F)F)cc1-c1ccc(OCc2ccc(OCCOCCNc3cccc4c3C(=O)N(C3CCC(=O)NC3=O)C4=O)cc2)c(-c2ccc(Cl)c(C(F)(F)F)c2)c1O (centres unmarked) [NUCC-0226301] | 1.1 | 3.8 | 48.5 | 3.2 |
| Cc1ccc([C@@H](C)Oc2ccc(-c3cc(C(F)(F)F)nn3C)c(O)c2-c2ccc(Cl)c(C(F)(F)F)c2)cc1 [NUCC-0226436] | 3.4 | – | 30.3 | 11.8 |
| Cn1nc(C(F)(F)F)cc1-c1ccnc(-c2ccc(Cl)c(C(F)(F)F)c2)c1O [NUCC-0226595] | 0.74 | 4.03 | 69.8 | 6.3 |
| COCCCN(C(=O)c1ccc(C(F)(F)F)c(Cl)c1)c1ccc(-c2cc(C(F)(F)F)nn2C)c(O)c1 [NUCC-0226267] | 4.6 | – | 46.4 | 8 |
| Cc1ncsc1-c1ccc(CNC(=O)[C@@H]2C[C@@H](O)CN2C(=O)[C@@H](NC(=O)CCCCCCCCNC(=O)CCOCCCN(C(=O)c2ccc(Cl)c(C(F)(F)F)c2)c2ccc(-c3cc(C(F)(F)F)nn3C)c(O)c2)C(C)(C)C)cc1 [NUCC-0226226] | 5.1 | – | 81.9 | 10.6 |
| Cn1nc(C(F)(F)F)cc1-c1ccc(OCc2ccc(Cl)cc2)c(-c2ccc(Cl)c(Cl)c2)c1O [NUCC-0226496] | 5.3 | – | 25.4 | 10.3 |
| COc1ccc(C2=N[C@@H](c3ccc(Cl)cc3)[C@@H](c3ccc(Cl)cc3)N2C(=O)N2CCN(CCCCCOc3ccc(-c4cc(C(F)(F)F)nn4C)c(O)c3-c3ccc(Cl)c(C(F)(F)F)c3)C(=O)C2)c(OC(C)C)c1 [NUCC-0226223] | 18.6 | – | 91.5 | 5.5 |
| CC(C)Cc1ccc([C@@H](C)Oc2ccc(-c3cc(C(F)(F)F)nn3C)c(O)c2-c2ccc(Cl)c(C(F)(F)F)c2)cc1 [NUCC-0226437] | 5.4 | – | 50.7 | 9 |
| Cc1ncsc1-c1ccc(CNC(=O)[C@@H]2C[C@@H](O)CN2C(=O)[C@@H](NCCOCCNC(=O)CCOCCCOc2ccc(-c3cc(C(F)(F)F)nn3C)c(O)c2-c2ccc(Cl)c(C(F)(F)F)c2)C(C)(C)C)cc1 [NUCC-0226303] | 10.9 | – | 24 | 1.6 |
| Cn1nc(C(F)(F)F)cc1-c1ccc(Cc2ccc(Cl)cc2)c(-c2ccc(Cl)c(C(F)(F)F)c2)c1O [NUCC-0226566] | 3.88 | – | 43.7 | 10.5 |
